According to patent publication US10995358B2, “Rapid antibiotic susceptibility test using membrane fluorescence staining and spectral intensity ratio improved by flow cytometry dead to live population ratio” (POCARED Diagnostics LTD., priority 2017, dated 2021):

Experiments:
Type in all cases: cell-based
K. pneumonia = test: Rapid AST/MIC from positive blood culture by FM 1-43 staining, flow cytometry and spectral intensity ratio (SIR); details: 2-4 hours antibiotic exposure
Description: (§1) In general, the method includes; blood culture centrifugation, bacterial antimicrobial exposure for 2 to 4 hours, bacteria staining with a single fluorescence dye followed by a flow cytometric measurement, and mathematical analysis.
(§2) 31 positive blood cultures were obtained from Sheba Medical Center (Ramat-Gan, Israel) and tested for antimicrobial susceptibility with gentamicin and ampicillin antibiotics (Sigma-Aldrich, USA). […] As a positive control, a tube with bacterial sample solution (a) without antimicrobial agent. • h) All tubes were incubated at 37° C. • i) 2-4 hours from incubation initiation, 200 μl from each tube were transferred into a fresh tube, dyed with 2 μl of Synaptogreen or FM 1-43 (Sigma-Aldrich; Molecular Probes, respectively) and measured by a flow cytometer. The rest of the sample was further incubated for 16-20 hours and then was visually evaluated for growth.
(§3) In order to quantify the influence of a certain antimicrobial exposure we define the spectral intensity ratio (SIR) as follows: […]
(§4) The MIC is calculated by plotting the spectral intensity ratio (SIR) as a function of the antimicrobial concentration and approximating it to a step function in the form of […]

[1] = tested on: 31 positive blood cultures (E. coli, K. pneumonia, A. baummanii, P. mirabilis, E. cloacae, Aeromonass spp., K. oxytoca); test: Macro dilution reference method, positive blood cultures (visual growth after 16-20 hours); details: 31 strains from positive blood cultures
Description: 31 positive blood cultures were obtained from Sheba Medical Center (Ramat-Gan, Israel) and tested for antimicrobial susceptibility with gentamicin and ampicillin antibiotics (Sigma-Aldrich, USA). A total of 62 positive blood samples-antibiotics combinations were tested. • a) Positive blood samples were received from Sheba Medical Center, 2 ml of each sample were centrifuged for 15 min at 24×g and Supernatants were diluted 1:1000 with Cation-Adjusted Mueller Hinton Broth (CAMHB). • b) Antimicrobial stock solutions were prepared according to CLSI recommendations, and were diluted in CAMHB, to a concentration which was 2 fold higher from the highest concentration recommended for each antimicrobial combination (“Class II Special Controls Guidance Document: Antimicrobial Susceptibility Test (AST) Systems”, Aug. 28, 2009, FDA). • c) For each sample/antimicrobial combination, a set of tubes was prepared for which 1 ml of CAMHB medium was added, except for the first tube. • d) To each first tube of the set, 2 ml from the antimicrobial stock solution (b) was dispensed. • e) From the first tube a serial dilutions of 2 folds were prepared by transferring 1 ml of the solution to the next tube until the lowest required concentration by CLSI. 1 ml was discarded from the last tube in each set of tubes. • f) To each tube in the set, 1 ml of bacterial sample solution (a) was added. • g) For each serial dilutions set, two controls were added. As a negative control, a tube with 2 ml of CAMHB. As a positive control, a tube with bacterial sample solution (a) without antimicrobial agent. • h) All tubes were incubated at 37° C. • i) 2-4 hours from incubation initiation, 200 μl from each tube were transferred into a fresh tube, dyed with 2 μl of Synaptogreen or FM 1-43 (Sigma-Aldrich; Molecular Probes, respectively) and measured by a flow cytometer. The rest of the sample was further incubated for 16-20 hours and then was visually evaluated for growth.
62 samples (31 positive blood cultures and 2 antibiotics combination) were analyzed in triplicates. Each sample was measured by the flow cytometer and the MIC was calculated using the spectral intensity ratio (SIR) calculation and step function estimation. The bacteria identified within the samples were; E. coli (15 samples), K. pneumonia (6 samples), A. baummanii (4 samples), P. mirabilis (2 samples), E. cloacae (2 samples), Aeromonass spp. (1 sample), and K. oxytoca (1 sample).
Tables 1 and 2 present the results of the positive blood sample experiment using the macro dilution as the reference method. […] There are no errors as defined by “Class II Special Controls Guidance Document: Antimicrobial Susceptibility Test (AST) Systems,” Aug. 28, 2009, FDA.

E. coli [2] = test: Rapid AST/MIC from clinical isolates by FM 1-43 staining, flow cytometry and SIR; details: clinical isolate, 2-4 hours antibiotic treatment
Description: (§5) Our method includes bacterial antimicrobial treatment for 2 to 4 hours, bacteria staining with a single fluorescence dye followed by a flow cytometric measurement, and mathematical analysis. The following paragraphs describe the method in details.
(§6) A total of 90 isolates-antibiotics combinations were tested. • a) All strains were cultured onto 5% sheep blood agar (Hylabs, Israel), following overnight incubation, colonies were harvested and suspended in Phosphate Buffer Saline (PBS, Sigma-Aldrich). […] The rest of the sample was further incubated for 16-20 hours and then was visually evaluated for growth.
(§7) In order to quantify the influence of a certain antimicrobial treatment, we define the spectral intensity ratio (SIR) as follows: […]
(§8) The MIC is calculated by plotting the spectral intensity ratio (SIR) as a function of the antimicrobial concentration and approximating it to a step function in the form of
(§9) Where a, b, and c are parameters and erf is the error function. The parameters are used to approximate the measured SIR to a step function; a is a scaling parameter, b determines the step slope, and c is the MIC value. […]

C. freundii = test: Rapid AST from clinical isolates by FM 1-43 staining, flow cytometry and SIR; details: clinical isolate, up to 32 μg/ml
Description: as §5, §6, §7, §8, §9

[3] = tested on: 30 clinical isolates of E. coli, K. pneumoniae, E. cloacae, P. mirabilis, and C. freundii; test: Macro dilution reference method, clinical isolates (visual growth after 16-20 hours)
Description: A total of 90 isolates-antibiotics combinations were tested. • a) All strains were cultured onto 5% sheep blood agar (Hylabs, Israel), following overnight incubation, colonies were harvested and suspended in Phosphate Buffer Saline (PBS, Sigma-Aldrich). […] 1 ml was discarded from the last tube in each set of tubes. • g) For each serial dilutions set, two controls were added. As a negative control, a tube with 2 ml of CAMHB. […] The rest of the sample was further incubated for 16-20 hours and then was visually evaluated for growth.

E. coli [4] = test: Flow cytometry SIR/SDL dead/live analysis of FM1-43 stained bacteria under Gentamycin exposure; design: key to SIR: SIR = ratio of mean FL-3 (610 nm) to FL-1 (530 nm) fluorescence; details: for Dead % of This Plot / Live % of This Plot / SDL SIR * D/L / SIR: 120 minutes
Description: In this Example, E. coli bacteria samples were incubated with Gentamycin in series dilution from 0 to 32 μgr/ml for 120 minutes. Post incubation the samples were stained with the dye FM1-43 and immediately measured by flow cytometry analysis on light scatter analysis for gating the bacteria and with fluorescence filters: λ1=530/30 and λ2=616/16 nm to analyze the SIR. Moreover gating of the Dead and live bacteria were determined.
From such instant flow-cytometry analysis the SIR and SDL values are evaluated. While performing the same analysis over the whole antibiotic concentrations dilution series the SIR and SDL values were extracted to the concentration series, the data is summarized in Table 5. In Table 5, mean FL1-H and FL3-H is the average of the individual points in the bacteria gated population, i.e. of all measured bacteria. In other words, Fl-1 and FL-3 are merely the fluorescence intensity of each event (bacteria) per a certain fluorescence filter. By referring to FL-1 or FL-3 this means that the mean (average) values of all the events is calculated in the dot plot. FL-1 it is at 530 (±15) nm and FL-3 is at 610 (±10) nm. SIR, is the ratio of FL-3/FL-1. […] So, in order to obtain SIR all that is needed are the FL-3 and FL-1 mean values of the bacterial population in the dot plot. […] By using a predetermined gates, the number of dead and live bacteria can be counted, and then the ratio of dead to live can be calculated and multiplied by the SIR to obtain SDL. The gates are combination of FL-1 and FL-3 and predetermined by control live sample. Plotting SIR, SDL, and DL versus antibiotic concentration is represented in FIG. 15 as (labeled as “SIR”, “SDL”, and “DL”). In FIG. 15, SIR, SDL, and DL are all normalized to the maximum value in the series (column)/dataset and then to 100.
From the data, we can determine the MIC by approximating the MIC as a function of antimicrobial concentration to an error function (FIG. 16) of the following type;
The MIC is the value of the parameter c or a function of it. Specifically, the MIC gets the value of “c”. The value of “c” is the middle of the step in a regular step function of where the step function equals to zero when its values are normalized between −1 to 1.

E. coli [5] = test: Micro dilution susceptibility test performed in parallel; details: after 12 hours of incubation
E. coli [6] = test: Rapid AST from positive blood culture by FM 1-43 staining, flow cytometry and SIR; details: positive blood culture strain, 2-4 hours antibiotic exposure
Description: as §1, §2, §3, §4

[7] = 120 minutes incubation, FIG. 17A
[8] = 120 minutes incubation, FIG. 17B
[9] = Gentamycin 1 microg/ml (sub-MIC), listed as Gentamycin
[10] = Gentamycin 1 microg/ml (sub-MIC), listed as gentamycin
[11] = Gentamycin 8 microg/ml (over-MIC), listed as Gentamycin
[12] = Gentamycin 8 microg/ml (over-MIC), listed as gentamycin

Question: What does the source list for gentamicin?
Answer: MIC (SIR approximated to a step function) (K. pneumonia): 1 µg/mL; Reference Method Susceptibilities I (number of strains) [1]: 0; Reference Method Susceptibilities R (number of strains) [1]: 10; Reference Method Susceptibilities S (number of strains) [1]: 21; MIC (SIR approximated to a step function) (E. coli [2]): 2 µg/mL; susceptibility by SIR method (C. freundii): resistant; Reference Method Susceptibilities I (number of strains) [3]: 4; Reference Method Susceptibilities R (number of strains) [3]: 5; Reference Method Susceptibilities S (number of strains) [3]: 21; MIC from SIR error function fit (c rounded up to power of 2) (E. coli [4]; [7]): 8 μgr/ml; value of c, error function fit of measured SIR (E. coli [4]; [7]): 4.63 μgr/ml; MIC from SDL error function fit (c rounded up to power of 2) (E. coli [4]; [8]): 8 μgr/ml; value of c, error function fit of measured SDL (E. coli [4]; [8]): 5.38 μgr/ml; Dead % of This Plot (E. coli [4]; Gentamycin 0.25 microg/ml): 2.07%; Live % of This Plot (E. coli [4]; Gentamycin 0.25 microg/ml): 97.89%; SDL SIR * D/L (E. coli [4]; Gentamycin 0.25 microg/ml): 0.026; SIR (E. coli [4]; Gentamycin 0.25 microg/ml): 1.223; Dead % of This Plot (E. coli [4]; Gentamycin 0.5 microg/ml): 2.34%; Live % of This Plot (E. coli [4]; Gentamycin 0.5 microg/ml): 97.65%; SDL SIR * D/L (E. coli [4]; Gentamycin 0.5 microg/ml): 0.030; SIR (E. coli [4]; Gentamycin 0.5 microg/ml): 1.238; Dead % of This Plot (E. coli [4]; [9]): 4.64%; Live % of This Plot (E. coli [4]; [9]): 95.29%; Dead % of This Plot (E. coli [4]; [10]): 4.6%; Live % of This Plot (E. coli [4]; [10]): 95.2%; SDL SIR * D/L (E. coli [4]; Gentamycin 1 microg/ml): 0.070; SIR (E. coli [4]; Gentamycin 1 microg/ml): 1.437; Dead % of This Plot (E. coli [4]; Gentamycin 2 microg/ml): 6.46%; Live % of This Plot (E. coli [4]; Gentamycin 2 microg/ml): 93.52%; SDL SIR * D/L (E. coli [4]; Gentamycin 2 microg/ml): 0.099; SIR (E. coli [4]; Gentamycin 2 microg/ml): 1.426; Dead % of This Plot (E. coli [4]; Gentamycin 4 microg/ml): 9.86%; Live % of This Plot (E. coli [4]; Gentamycin 4 microg/ml): 90.09%; SDL SIR * D/L (E. coli [4]; Gentamycin 4 microg/ml): 0.188; SIR (E. coli [4]; Gentamycin 4 microg/ml): 1.718; Dead % of This Plot (E. coli [4]; [11]): 18.68%; Live % of This Plot (E. coli [4]; [11]): 81.28%; Dead % of This Plot (E. coli [4]; [12]): 18%; Live % of This Plot (E. coli [4]; [12]): 81%; SDL SIR * D/L (E. coli [4]; Gentamycin 8 microg/ml): 0.492; SIR (E. coli [4]; Gentamycin 8 microg/ml): 2.141; Dead % of This Plot (E. coli [4]; Gentamycin 16 microg/ml): 27.28%; Live % of This Plot (E. coli [4]; Gentamycin 16 microg/ml): 72.67%; SDL SIR * D/L (E. coli [4]; Gentamycin 16 microg/ml): 0.893; SIR (E. coli [4]; Gentamycin 16 microg/ml): 2.379; Dead % of This Plot (E. coli [4]; Gentamycin 32 microg/ml): 21.03%; Live % of This Plot (E. coli [4]; Gentamycin 32 microg/ml): 78.95%; SDL SIR * D/L (E. coli [4]; Gentamycin 32 microg/ml): 0.622; SIR (E. coli [4]; Gentamycin 32 microg/ml): 2.336; MIC, micro dilution susceptibility test (E. coli [5]): 8 μgr/ml

Question: Which results are given for CC1(C)S[C@@H]2[C@H](NC(=O)[C@H](N)c3ccccc3)C(=O)N2[C@H]1C(=O)O [Ampicillin, ampicillin]?
Answer: MIC (K. pneumonia; Klebsiella pneumoniae, read-out: MIC (SIR approximated to a step function)): 4 µg/mL; susceptibility by SIR method (E. coli [6]): resistant; Reference Method Susceptibilities I (number of strains) [1]: 0; Reference Method Susceptibilities R (number of strains) [1]: 26; Reference Method Susceptibilities S (number of strains) [1]: 5; Reference Method Susceptibilities I (number of strains) [3]: 5; Reference Method Susceptibilities R (number of strains) [3]: 9; Reference Method Susceptibilities S (number of strains) [3]: 16
